# Laboratory results published in patent US20070280972A1, “Adhesive solid gel-forming formulations for dermal drug delivery” (ZARS, Inc., priority 2006, published 2007).
# Like-named read-outs stand apart in the source and are kept apart here.
# Experiments:
# [1] = Estimated therapeutically sufficient flux (steady state flux of marketed products, in vitro)
# [2] = In vitro skin flux, Franz diffusion cell, hairless mouse skin; settings: for steady state flux in solid gel-forming formulation compared with flux-enabling non-volatile solvent alone: Table 16 vs solvent tables; for Avg. Flux / Average Flux: mean and st. dev of three; for Skin Flux: excess drug, linear region 4-8 hours, mean ± SD of three
# [3] = In vitro skin flux, Franz diffusion cell, human epidermal membrane / human cadaver skin; format: in vitro ADME; settings: for Skin Flux: 0.1% (w/w) clobetasol propionate, human cadaver skin (HEM), linear region 6-28 hours, mean ± SD of three
# [4] = as above; format: in vitro ADME; settings: for duration over which steady-state delivery is shown: cumulative amount delivered across human cadaver skin from a solidified gel formulation (FIG. 1, FIG. 2)
# [5] = pH 7.4
# [6] = steady state flux of marketed product through hairless mouse or human epidermal membrane, method of Example 1, estimate
# [7] = non-volatile solvent system: Ethyl oleate, hairless mouse skin
# [8] = non-volatile solvent system: Isostearic acid, 200 mcL on hairless mouse skin
# [9] = non-volatile solvent system: Oleic acid, hairless mouse skin
# [10] = non-volatile solvent system: Polyethylene glycol 400, 200 mcL on hairless mouse skin
# [11] = non-volatile solvent: Polyethylene glycol 400, hairless mouse skin
# [12] = non-volatile solvent system: Glycerol, hairless mouse skin
# [13] = non-volatile solvent system: Propylene glycol, hairless mouse skin
# [14] = non-volatile solvent system: Span 20 (sorbitan laurate), hairless mouse skin
# [15] = non-volatile solvent system: Isopropyl myristate, hairless mouse skin
# [16] = solvents isopropyl myristate, ethyl oleate, propylene glycol, and Span 20, hairless mouse skin
structure (smiles),measurement,setting,value
"Nc1nc2c(ncn2COCCO)c(=O)[nH]1 [Acyclovir, acyclovir]",Estimated Therapeutically sufficient flux,[1]; [6],3 μg/cm^2/h
same,Estimated Therapeutically sufficient flux,"[1]; steady state flux of marketed product through hairless mouse or human epidermal membrane, method of Example 1, estimate, listed as acyclovir",about 3 μg/cm^2/h
same,steady state flux in solid gel-forming formulation compared with flux-enabling non-volatile solvent alone,[2]; hairless mouse skin,higher
same,Avg. Flux,"[2]; high flux-enabling non-volatile solvent: ISA + 30% trolamine, hairless mouse skin",7 ± 2 μg/cm2/h
same,Skin Flux,"[2]; non-volatile solvent system: Ethyl oleate + 10% trolamine, hairless mouse skin",0.2 ± 0.2 μg/cm^2/h
same,Skin Flux,[2]; [7],0.2 ± 0.2 μg/cm^2/h
same,Skin Flux,"[2]; non-volatile solvent system: Isostearic acid + 10% trolamine, hairless mouse skin",2.7 ± 0.6 μg/cm^2/h
same,Skin Flux,"[2]; non-volatile solvent system: Isostearic acid + 30% trolamine, hairless mouse skin",7 ± 2 μg/cm^2/h
same,Skin Flux,[2]; [8],0.1 ± 0.09 μg/cm^2/h
same,Skin Flux,"[2]; non-volatile solvent system: Oleic acid + 10% trolamine, hairless mouse skin",3.7 ± 0.5 μg/cm^2/h
same,Skin Flux,"[2]; non-volatile solvent system: Oleic acid + 30% trolamine, hairless mouse skin",14 ± 5 μg/cm^2/h
same,Skin Flux,[2]; [9],0.4 ± 0.3 μg/cm^2/h
same,Skin Flux,[2]; [10],0 μg/cm^2/h
same,Skin Flux,"[2]; non-volatile solvent system: Span 80 (sorbitan monooleate), hairless mouse skin",0.07 ± 0.03 μg/cm^2/h
same,Average Flux,"[2]; non-volatile solvent: Isostearic acid + 10% trolamine, hairless mouse skin",2.7 ± 0.6 μg/cm2/hr
same,Average Flux,[2]; [11],0 μg/cm2/hr
"CCC(=O)O[C@]1(C(=O)CCl)[C@@H](C)C[C@H]2[C@@H]3CCC4=CC(=O)C=C[C@]4(C)[C@@]3(F)[C@@H](O)C[C@@]21C [Clobetasol propionate, clobetasol propionate]",Average Flux,"[3]; all the neat non-volatile solutions studied, over a 30 hour time period, human cadaver skin",less than 50 ng/cm^2/hr
same,Average Flux,"[3]; non-volatile solvent: Isostearic acid (ISA), human epidermal membrane, mean and st. dev of three",0.019 ± 0.003 μg/cm2/hr
same,Average Flux,"[3]; non-volatile solvent: Light mineral oil, human epidermal membrane, mean and st. dev of three",0.031 ± 0.003 μg/cm2/hr
same,Average Flux,"[3]; non-volatile solvent: Propylene glycol, human epidermal membrane, mean and st. dev of three",0.0038 ± 0.0004 μg/cm2/hr
same,average flux relative to light mineral oil,[3]; propylene glycol and isostearic acid at a weight ratio of 9:1 vs light mineral oil,20 times
same,Skin Flux,[3]; solvent: Ethyl oleate,19.4 ± 1.6 ng/cm^2/h
same,Skin Flux,[3]; solvent: Glycerol,7.0 ± 4.1 ng/cm^2/h
same,Skin Flux,[3]; solvent: Isostearic acid (ISA),19.4 ± 3.2 ng/cm^2/h
same,Skin Flux,[3]; solvent: Light mineral oil,31.2 ± 3.4 ng/cm^2/h
same,Skin Flux,[3]; solvent: Olive oil,13.6 ± 3.3 ng/cm^2/h
same,Avg. Flux,"[3]; solvent: PG + ISA (Ratio of PG:ISA ranging from 200:1 to 1:1), value is for 9:1 mixture, human epidermal membrane",0.8 ± 0.2 μg/cm2/h
same,Skin Flux,[3]; solvent: Propylene glycol/ISA (9:1),764.7 ± 193.9 ng/cm^2/h
same,Skin Flux,"[3]; solvent: Propylene glycol, 200 mcl",3.8 ± 0.4 ng/cm^2/h
C[C@H]1C[C@H]2[C@@H]3CCC4=CC(=O)C=C[C@]4(C)[C@@]3(F)[C@@H](O)C[C@]2(C)[C@@]1(O)C(=O)CCl [Clobetasol],Estimated Therapeutically sufficient flux,[1]; [6],0.05 μg/cm^2/h
O=C(O)Cc1ccccc1Nc1c(Cl)cccc1Cl [Diclofenac],Estimated Therapeutically sufficient flux,[1]; [6],1 μg/cm^2/h
same,duration over which steady-state delivery is shown,[4],28 h
same,steady state flux in solid gel-forming formulation compared with flux-enabling non-volatile solvent alone,"[4]; formulation (Example 16) tested on human epidermal membrane, solvent on hairless mouse skin",lower
"CC(C)Cn1cnc2c(N)nc3ccccc3c21 [Imiquimod, imiquimod]",steady state flux in solid gel-forming formulation compared with flux-enabling non-volatile solvent alone,[2]; hairless mouse skin,unchanged
same,Skin Flux,[2]; [12],0 μg/cm^2/h
same,Skin Flux,[2]; [8],0.30 ± 0.06 μg/cm^2/h
same,Skin Flux,[2]; [13],0.05 ± 0.02 μg/cm^2/h
same,Skin Flux,[2]; [14],0.30 ± 0.05 μg/cm^2/h
same,Skin Flux,"[2]; non-volatile solvent system: Tween 60 (polyoxyethylene sorbitan monostearate), hairless mouse skin",0.02 ± 0.01 μg/cm^2/h
"CC(C(=O)O)c1cccc(C(=O)c2ccccc2)c1 (stereo not shown) [Ketoprofen, ketoprofen]",Estimated Therapeutically sufficient flux,[1]; [6],16 μg/cm^2/h
same,Estimated Therapeutically sufficient flux,"[1]; steady state flux of marketed product through hairless mouse or human epidermal membrane, method of Example 1, estimate, listed as ketoprofen",about 16 μg/cm^2/h
same,steady state flux in solid gel-forming formulation compared with flux-enabling non-volatile solvent alone,[2]; hairless mouse skin,lower
same,Avg. Flux,"[2]; high flux-enabling non-volatile solvent: Propylene glycol, hairless mouse skin",90 ± 50 μg/cm2/h
same,Skin Flux,[2]; [12],2 ± 1 μg/cm^2/h
same,Skin Flux,[2]; [9],180 ± 20 μg/cm^2/h
same,Skin Flux,[2]; [10],5 ± 2 μg/cm^2/h
same,Skin Flux,[2]; [13],90 ± 50 μg/cm^2/h
same,Skin Flux,[2]; [14],15 ± 3 μg/cm^2/h
same,Average Flux,[2]; [11],5 ± 2 μg/cm2/hr
same,Average Flux,"[2]; non-volatile solvent: Span 20, hairless mouse skin",15 ± 3 μg/cm2/hr
"CCCN1CCCC[C@H]1C(=O)Nc1c(C)cccc1C [Ropivacaine, ropivacaine]",Estimated Therapeutically sufficient flux,[1]; Estimated flux based on known potency relative to lidocaine,5 μg/cm^2/h
same,Estimated Therapeutically sufficient flux,"[1]; Estimated flux based on known potency relative to lidocaine, listed as ropivacaine base",about 5 μg/cm^2/h
same,steady state flux in solid gel-forming formulation compared with flux-enabling non-volatile solvent alone,[2]; hairless mouse skin,higher
same,Avg. Flux,"[2]; high flux-enabling non-volatile solvent: ISA, hairless mouse skin",11 ± 2 μg/cm2/h
same,Avg. Flux,"[2]; high flux-enabling non-volatile solvent: Span 20, hairless mouse skin",26 ± 8 μg/cm2/h
same,Skin Flux,[2]; [12],1.2 ± 0.7 μg/cm^2/h
same,Skin Flux,[2]; [8],11 ± 2 μg/cm^2/h
same,Skin Flux,"[2]; non-volatile solvent system: Mineral oil, hairless mouse skin",8.9 ± 0.6 μg/cm^2/h
same,Skin Flux,[2]; [14],26 ± 8 μg/cm^2/h
same,Skin Flux,"[2]; non-volatile solvent system: Tween 20 (polyoxyethylene sorbitan monolaurate), hairless mouse skin",2.4 ± 0.1 μg/cm^2/h
same,Average Flux,"[2]; non-volatile solvent: Glycerol, hairless mouse skin",1.2 ± 0.7 μg/cm2/hr
same,Average Flux,"[2]; non-volatile solvent: Mineral oil, hairless mouse skin",8.9 ± 0.6 μg/cm2/hr
same,duration over which steady-state delivery is shown,[4],30 h
"C[C@]12CC[C@H]3[C@@H](CCC4=CC(=O)CC[C@@]43C)[C@@H]1CC[C@@H]2O [Testosterone, testosterone]",Estimated Therapeutically sufficient flux,[5],0.8 μg/cm^2/h
O=C(O)Cc1ccccc1Nc1c(Cl)cccc1Cl [diclofenac acid],Skin Flux,[2]; [7],7 ± 3 μg/cm^2/h
same,Skin Flux,[2]; [12],0 μg/cm^2/h
same,Skin Flux,[2]; [15],8 ± 3 μg/cm^2/h
same,Skin Flux,[2]; [13],5 ± 2 μg/cm^2/h
same,Skin Flux,[2]; [14],3 ± 1 μg/cm^2/h
same,steady state flux relative to currently available marketed products,[2]; [16],no more than 10 times
O=C(O)Cc1ccccc1Nc1c(Cl)cccc1Cl [diclofenac sodium],Skin Flux,[2]; [7],14 ± 4 μg/cm^2/h
same,Skin Flux,[2]; [12],1.7 ± 0.3 μg/cm^2/h
same,Skin Flux,[2]; [15],13 ± 3 μg/cm^2/h
same,Skin Flux,[2]; [13],30 ± 30 μg/cm^2/h
same,Skin Flux,[2]; [14],98 ± 20 μg/cm^2/h
same,steady state flux relative to flux value for glycerol,[2]; [16],at least 10 times
